Data published in patent US9487515B2, “Compounds modulating c-fms and/or c-kit activity and uses therefor” (Plexxikon Inc., priority 2006, dated 2016).

Target: c-kit (Homo sapiens, UniProt P10721)
Test: c-kit assays of Examples 40 and 41 (AlphaScreen kinase assays at 10 and 100 μM ATP, 33P-ATP filter assay, M-07e SCF-stimulated proliferation and phosphorylation)

Sequence of c-kit (P10721 with tags, fused parts or gaps): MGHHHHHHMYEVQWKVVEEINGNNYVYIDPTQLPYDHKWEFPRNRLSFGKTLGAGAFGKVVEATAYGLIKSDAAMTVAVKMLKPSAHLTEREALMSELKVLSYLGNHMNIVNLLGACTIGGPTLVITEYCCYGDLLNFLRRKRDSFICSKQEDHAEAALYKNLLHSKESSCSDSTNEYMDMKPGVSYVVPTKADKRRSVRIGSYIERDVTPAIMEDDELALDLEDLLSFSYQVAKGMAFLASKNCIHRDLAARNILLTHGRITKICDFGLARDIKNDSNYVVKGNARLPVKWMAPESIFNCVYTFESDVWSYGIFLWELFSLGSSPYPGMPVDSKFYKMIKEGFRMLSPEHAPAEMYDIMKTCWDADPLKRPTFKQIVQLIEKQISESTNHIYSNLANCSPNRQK

| Structure (SMILES) | IC50 |
| --- | --- |
| O=C(Nc1ccc(Cc2c[nH]c3ncccc23)cn1)c1ccc(F)c(C(F)(F)F)c1 [P-0112, 4-Fluoro-N-[5-(1H-pyrrolo[2,3-b]pyridin-3-ylmethyl)-pyridin-2-yl]-3-trifluoromethyl-benzamide] | < 1000 nM |
| O=C(Nc1ccc(Cc2c[nH]c3ncccc23)cn1)c1cccc(OC(F)(F)F)c1 [P-0113, N-[5-(1H-Pyrrolo[2,3-b]pyridin-3-ylmethyl)-pyridin-2-yl]-3-trifluoromethoxy-benzamide] | < 1000 nM |
| O=C(Nc1ccc(Cc2c[nH]c3ncccc23)cn1)c1cccc(C(F)(F)F)c1 [P-0114, N-[5-(1H-Pyrrolo[2,3-b]pyridin-3-ylmethyl)-pyridin-2-yl]-3-trifluoromethyl-benzamide] | < 1000 nM |
| O=C(Nc1ccc(Cc2c[nH]c3ncccc23)cn1)c1ccc(F)c(Cl)c1 [P-0115, 3-Chloro-4-fluoro-N-[5-(1H-pyrrolo[2,3-b]pyridin-3-ylmethyl)-pyridin-2-yl]-benzamide] | < 1000 nM |
| O=C(Nc1ccc(Cc2c[nH]c3ncccc23)cn1)c1ccc(F)c(F)c1 [P-0116, 3,4-Difluoro-N-[5-(1H-pyrrolo[2,3-b]pyridin-3-ylmethyl)-pyridin-2-yl]-benzamide] | < 1000 nM |
| Cc1ccc(F)cc1C(=O)Nc1ccc(Cc2c[nH]c3ncccc23)cn1 [P-0118, 5-Fluoro-2-methyl-N-[5-(1H-pyrrolo[2,3-b]pyridin-3-ylmethyl)-pyridin-2-yl]-benzamide] | < 1000 nM |
| COc1cccc(C(=O)Nc2ccc(Cc3c[nH]c4ncccc34)cn2)c1 [P-0120, 3-Methoxy-N-[5-(1H-pyrrolo[2,3-b]pyridin-3-ylmethyl)-pyridin-2-yl]-benzamide] | < 1000 nM |
| O=C(Nc1ccc(Cc2c[nH]c3ncccc23)cn1)c1cccc(F)c1 [P-0121, 3-Fluoro-N-[5-(1H-pyrrolo[2,3-b]pyridin-3-ylmethyl)-pyridin-2-yl]-benzamide] | < 1000 nM |
| Cc1cccc(C(=O)Nc2ccc(Cc3c[nH]c4ncccc34)cn2)c1 [P-0122, 3-Methyl-N-[5-(1H-pyrrolo[2,3-b]pyridin-3-ylmethyl)-pyridin-2-yl]-benzamide] | < 1000 nM |
| O=C(Nc1ccc(Cc2c[nH]c3ncccc23)cn1)c1ccnc(Cl)c1 [P-0123, 2-Chloro-N-[5-(1H-pyrrolo[2,3-b]pyridin-3-ylmethyl)-pyridin-2-yl]-isonicotinamide] | < 1000 nM |
| C[C@@H](Nc1ccc(Cc2c[nH]c3ncccc23)cn1)c1ccccc1 [P-0125, ((R)-1-Phenyl-ethyl)-[5-(1H-pyrrolo[2,3-b]pyridin-3-ylmethyl)-pyridin-2-yl]-amine] | < 1000 nM |
| c1cc(CNc2ccc(Cc3c[nH]c4ncccc34)cn2)cc(N2CCOCC2)c1 [P-0126, (3-Morpholin-4-yl-benzyl)-[5-(1H-pyrrolo[2,3-b]pyridin-3-ylmethyl)-pyridin-2-yl]-amine] | < 1000 nM |
| CC(Nc1ccc(Cc2c[nH]c3ncccc23)cn1)c1ccccc1F (centres unmarked) [P-0127, [1-(2-Fluoro-phenyl)-ethyl]-[5-(1H-pyrrolo[2,3-b]pyridin-3-ylmethyl)-pyridin-2-yl]-amine] | < 1000 nM |
| Fc1cccc(CCNc2ccc(Cc3c[nH]c4ncccc34)cn2)c1 [P-0128, [2-(3-Fluoro-phenyl)-ethyl]-[5-(1H-pyrrolo[2,3-b]pyridin-3-ylmethyl)-pyridin-2-yl]-amine] | < 1000 nM |
| Clc1cccc(CNc2ccc(Cc3c[nH]c4ncccc34)cn2)c1 [P-0129, (3-chloro-benzyl)-[5-(1H-pyrrolo[2,3-b]pyridin-3-ylmethyl)-pyridin-2-yl]-amine] | < 1000 nM |
| Cc1cc(CNc2ccc(Cc3c[nH]c4ncccc34)cn2)nn1C [P-0131, (1,5-Dimethyl-1H-pyrazol-3-ylmethyl)-[5-(1H-pyrrolo[2,3-b]pyridin-3-ylmethyl)-pyridin-2-yl]-amine] | < 1000 nM |
| Fc1nc(NCc2ccc(Cl)cc2)ccc1Cc1c[nH]c2ncc(Cl)cc12 [P-0132, (4-Chloro-benzyl)-[5-(5-chloro-1H-pyrrolo[2,3-b]pyridin-3-ylmethyl)-6-fluoro-pyridin-2-yl]-amine] | < 1000 nM |
